From PubChem BioAssay AID1845197 (Molecular Pharmacology Branch, DTP, NCI, 2023)
Several values for one entry are separate records, joined by “and”; a condition that tells them apart may be missing. Identical values can stand only once.

Test system: 349418-098-R tumor spheroid viability
Assay: Anticancer human tumor 349418-098-R patient-derived lung adenocarcinoma cell line growth inhibition
Settings: spheroids with HUVEC and MSC; for viability, T/C: stronger effect = lower value; active = viability on the fitted dose curve at most 10% of control; inactive = the rest
Summary of the method: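 Complex spheroids of malignant cells with endothelial cells and mesenchymal stem cells; agents alone or combined, from near clinical Cmax (or 10 microM if unknown) down in half-log steps, 0.25% DMSO final.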
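Also: spheroids exposed to compound for 7 days before measurement.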
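For viability, T/C in this document: percent of vehicle control viability with 100% = DMSO-treated spheroids.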

[2H]c1nc(C)nc([2H])c1-c1cc(NC[C@@H](C)c2cccc3c(C(=O)NC)ccnc23)ncn1 + COc1cc2c(cc1O)CCNC21CSC2c3c(OC(C)=O)c(C)c4c(c3C(COC1=O)N1C(O)C3Cc5cc(C)c(OC)c(O)c5C(C21)N3C)OCO4
< 0.0316 µM: IC50 (curve of first compound, second compound 0.000949 µM) | IC50 (curve of first compound, second compound 0.003 µM)
> 10 µM: IC50 (curve of first compound, second compound 30 pM) | IC50 (curve of first compound, second compound 94.9 pM) | IC50 (curve of first compound, second compound 0.0003 µM)
active: viability, T/C (second compound 0.000949 µM, first compound 0.0316 µM) 0.58% | viability, T/C (second compound 0.000949 µM, first compound 0.1 µM) 0.76% | viability, T/C (second compound 0.000949 µM, first compound 0.316 µM) 0.46% | viability, T/C (second compound 0.000949 µM, first compound 1 µM) 0.58% | viability, T/C (second compound 0.000949 µM, first compound 3.16 µM) 0.39% | viability, T/C (second compound 0.000949 µM, first compound 10 µM) 0.49% | viability, T/C (second compound 0.003 µM, first compound 0.0316 µM) 1.52% | viability, T/C (second compound 0.003 µM, first compound 0.1 µM) 1.57% | viability, T/C (second compound 0.003 µM, first compound 0.316 µM) 1.35% | viability, T/C (second compound 0.003 µM, first compound 1 µM) 1.29% | viability, T/C (second compound 0.003 µM, first compound 3.16 µM) 1.6% | viability, T/C (second compound 0.003 µM, first compound 10 µM) 2.34%
inactive: viability, T/C (second compound 30 pM, first compound 0.0316 µM) 110% | viability, T/C (second compound 30 pM, first compound 0.1 µM) 98.4% | viability, T/C (second compound 30 pM, first compound 0.316 µM) 111% | viability, T/C (second compound 30 pM, first compound 1 µM) 107% | viability, T/C (second compound 30 pM, first compound 3.16 µM) 98.2% | viability, T/C (second compound 30 pM, first compound 10 µM) 105% | viability, T/C (second compound 94.9 pM, first compound 0.0316 µM) 99% | viability, T/C (second compound 94.9 pM, first compound 0.1 µM) 99.5% | viability, T/C (second compound 94.9 pM, first compound 0.316 µM) 94.2% | viability, T/C (second compound 94.9 pM, first compound 1 µM) 107% | viability, T/C (second compound 94.9 pM, first compound 3.16 µM) 103% | viability, T/C (second compound 94.9 pM, first compound 10 µM) 98.7% | viability, T/C (second compound 0.0003 µM, first compound 0.0316 µM) 96.1% | viability, T/C (second compound 0.0003 µM, first compound 0.1 µM) 93.7% | viability, T/C (second compound 0.0003 µM, first compound 0.316 µM) 92.7% | viability, T/C (second compound 0.0003 µM, first compound 1 µM) 93.6% | viability, T/C (second compound 0.0003 µM, first compound 3.16 µM) 88% | viability, T/C (second compound 0.0003 µM, first compound 10 µM) 86.2%

COc1ccc([C@@H](O)c2cc(-c3ncnc4cc(N5CCOCC5)ccc34)c(F)cc2Cl)nn1
6.74 µM and 4.89 µM and 7.57 µM: IC50 (curve of compound)
inactive: viability, T/C (compound 0.0316 µM) 106% and 101% and 93.8% | viability, T/C (compound 0.1 µM) 97.6% and 102% and 111% | viability, T/C (compound 0.316 µM) 105% and 103% and 114% | viability, T/C (compound 1 µM) 112% and 102% and 111% | viability, T/C (compound 3.16 µM) 88% and 62.7% and 101% | viability, T/C (compound 10 µM) 30.2% and 29% and 33.6%
